Data on two compounds can be found in US20260217702A1, “NOVEL IMIDAZOQUINOLINES WITH IMMUNOSTIMULATORY EFFECTS” (Synovo GmbH, priority 2022, published 2026).

SMILES strings stand for the structures.

The subject of one series is IFNa relative to TNFa. The series is described as follows: Stimulation of cytokines in vivo (plasma cytokines, cytometric bead array). The note with it: female C57B6/J mice, i.p., 12 μmol/kg, citrate in saline, EDTA plasma at various times; reference Resiquimod. The procedure:
Female C57B6/J mice ca 18-20g ca. 8 weeks old are treated i.p. with E1 or E13 (citrate in saline) at a dose of12 μmol/kg. The reference substance is Resiquimod. At various times after application blood samples of approximately 25 μl are taken from the tail vein. The resulting EDTA plasma is analysed for cytokines using a cytometric bead array.

In the next series the test system is CT26 tumor. The series is described as follows: Application in cancer therapy: CT26 tumor in BALBc mice. The note with it: i.p. The class given is in vivo. How it is done:
Female BALBc mice carrying the CT26 tumor type are monitored until tumors are 100-150 mm^3 in volume. Animals are treated via injection i.p. with substances formulated at citrate salts in saline solution. Doses for E 1 are 3, 6 and 12 μmol/kg. At 12 μmol/kg, weight loss of ca. 5% is observed within 24 h. […] In a similar format, Female C57B6 mice carrying the MC38 tumor type co-injected with myofibroblasts (5 fibroblasts: 1 tumor cell-50,000, tumor cells) are monitored until tumors are 100-150 mm^3 in volume. Animals are treated via injection i.p. with either Vehicle or a Rat anti-PD-1 antibody (RMP1-14-CP157) 100 μg, or peritumoral 20 or 50 μg every 96 h. Certain groups receive the antibody alone, or receive in addition, E1 6 μmol/kg or E13 6 μmol/kg, other groups receive E1 and E13 alone at the same dose. Weight loss is similar to the study above and is between 5 and 8% of the starting weight for all treatments. Tumors treated with E1 or E13 alone remain static or decrease in size by up to 30% in size for up to 72 h following treatment. Tumors treated with E1 or E13 in combination with antiPD-1 decline (2 from 8) or are eliminated completely (6 from 8 animals) after the third antibody treatment.

As for `CCCCc1nc2c(N)nc3ccccc3c2n1CCC1CCN(C(=O)CN(C)CC(=O)N(C)[C@H]2C[C@@H](C)O[C@@H](C[C@@H]3[C@@H](C)[C@H](O[C@H]4C[C@@](C)(OC)[C@@H](O)[C@H](C)O4)[C@@H](C)C(=O)O[C@H](CC)[C@@](C)(O)[C@H](O)[C@@H](C)N(C)C[C@H](C)C[C@@]3(C)O)[C@@H]2O)CC1` [Example E13], the “secretion of IFNa relative to TNFa (ratio) compared to the reference” value in the series with IFNa relative to TNFa is on record as “higher ratio”.
Turning to `CCCCc1nc2c(N)nc3ccccc3c2n1CC1CCNCC1` [Example E1, 2-butyl-1-(piperidin-4-ylmethyl)-1H-imidazo[4,5-c]quinolin-4-amine], the “tumor size following treatment” value with CT26 tumor (CT26 tumors 100-150 mm^3 at start, doses 3, 6 and 12 μmol/kg, for up to 72 h following treatment) is listed as “remain static in size”. Besides, the weight loss result in the series with CT26 tumor (female BALBc mice with CT26 tumor, citrate salt in saline, 12 μmol/kg, within 24 h) is reported as “ca. 5%”. For the same compound, the “secretion of IFNa relative to TNFa (ratio) compared to the reference” value with IFNa relative to TNFa is on record as “higher ratio”.
